According to the supplement of paper PMC11061612:

How the values were obtained:
Assay in all cases: combination Emax (second highest fraction inhibited in the dose matrix, 72 h); higher = more inhibition; extreme values may be limits of the assay
[1] = tested on: SNU-5 (Gastric Carcinoma)
How it was run: (§1)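 After 24 hours at 37°C and 5% CO2 in 1536-well plates, cells in DMEM/F12 or RPMI plus 10% FBS received two-drug dose matrices for 72 hours. Viability came from CellTiter-Glo 2.0 luminescence and was scaled as inhibition, anchored at 0 by vehicle wells and at 1 by blank wells. Combination Emax is taken as the second-highest inhibition in the matrix, and Bliss excess as the observed combination effect less EA + EB − EA·EB, with EA and EB the single-agent effects.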

[2] = tested on: TE-9 (Esophageal Squamous Cell Carcinoma)
How it was run: as §1

[3] = tested on: AGS (Gastric Carcinoma)
How it was run: as §1

[4] = tested on: UM-UC-3 (Bladder Carcinoma)
How it was run: as §1

[5] = tested on: CaR-1 (Colorectal Carcinoma)
How it was run: as §1

[6] = tested on: NCI-H2085 (Non-Small Cell Lung Carcinoma)
How it was run: as §1

[7] = tested on: HCC-78 (Lung Adenocarcinoma)
How it was run: as §1

[8] = tested on: RC-K8 (B-Cell Non-Hodgkin's Lymphoma)
How it was run: as §1

[9] = tested on: HT-1376 (Bladder Carcinoma)
How it was run: as §1

[10] = tested on: CCRF-CEM (T-Lymphoblastic Leukemia)
How it was run: as §1

[11] = tested on: HO-1-N-1 (Oral Cavity Carcinoma)
How it was run: as §1

[12] = tested on: Daoy (Other Solid Carcinomas)
How it was run: as §1

[13] = tested on: HuP-T4 (Pancreatic Carcinoma)
How it was run: as §1

[14] = tested on: LB831-BLC (Bladder Carcinoma)
How it was run: as §1

[15] = tested on: ES4 (Ewing's Sarcoma)
How it was run: as §1

[16] = tested on: MFE-296 (Endometrial Carcinoma)
How it was run: as §1

[17] = tested on: MDA-MB-361 (Breast Carcinoma)
How it was run: as §1

[18] = tested on: DEL (T-Cell Non-Hodgkin's Lymphoma)
How it was run: as §1

[19] = tested on: NCI-H82 (Small Cell Lung Carcinoma)
How it was run: as §1

[20] = tested on: TCCSUP (Bladder Carcinoma)
How it was run: as §1

Compound	combination Emax [1]	combination Emax [2]	combination Emax [3]	combination Emax [4]	combination Emax [5]	combination Emax [6]	combination Emax [7]	combination Emax [8]	combination Emax [9]	combination Emax [10]	combination Emax [11]	combination Emax [12]	combination Emax [13]	combination Emax [14]	combination Emax [15]	combination Emax [16]	combination Emax [17]	combination Emax [18]	combination Emax [19]	combination Emax [20]
CC(=O)Nc1cccc(-n2c(=O)n(C3CC3)c(=O)c3c(Nc4ccc(I)cc4F)n(C)c(=O)c(C)c32)c1 [Trametinib] + Cc1nc(-c2cn3c(n2)-c2ccc(-c4cnn(C(C)(C)C(N)=O)c4)cc2OCC3)n(C(C)C)n1 [Taselisib] (first compound max 1 µM, 7x7, partner max 10 µM)	0.829	0.824	1	0.773	0.776	0.52	0.712	0.512	0.339	0.517	0.991	0.622	0.832	0.77	0.715	0.43	0.976	0.618	0.243	0.65
Cn1cnc2c(F)c(Nc3ccc(Br)cc3Cl)c(C(=O)NOCCO)cc21 [Selumetinib] + CC(C)n1c(=O)n(C)c2cnc3cc(F)c(-c4ccc(OCCCN5CCCCC5)nc4)cc3c21 [AZD1390] (first compound max 10 µM, 7x7, partner max 0.3 µM)	0.54	0.13	0.842	0.187	0.188	0.191	0.123	0.209	0.157	0.108	0.506	0.126	0.293	0.214	0.0668	0.0966	0.12	0.237	0.177	0.109
Cn1cnc2c(F)c(Nc3ccc(Br)cc3Cl)c(C(=O)NOCCO)cc21 [Selumetinib] + CCN(CCO)CCCOc1ccc2c(Nc3cc(CC(=O)Nc4cccc(F)c4)[nH]n3)ncnc2c1 [AZD2811] (first compound max 10 µM, 7x7, partner max 1 µM)	0.569	0.175	0.954	0.224	0.406	0.492	0.267	0.443	0.198	0.968	0.737	0.356	0.421	0.226	0.145	0.125	0.193	0.965	0.442	0.217
COc1nnc2ccc(N3CCC(c4ccc(OCCN5CCN(C)C(=O)[C@H]5C)cc4)CC3)nn12 [AZD5153] + Cn1cnc2c(F)c(Nc3ccc(Br)cc3Cl)c(C(=O)NOCCO)cc21 [Selumetinib] (first compound max 1 µM, 7x7, partner max 10 µM)	0.582	0.35	0.999	0.527	0.619	0.563	0.451	0.781	0.26	0.638	0.773	0.598	0.814	0.494	0.658	0.356	0.642	0.923	0.378	0.337
CC1(C)CCC(CN2CCN(c3ccc(C(=O)NS(=O)(=O)c4ccc(NCC5CCOCC5)c([N+](=O)[O-])c4)c(Oc4cnc5[nH]ccc5c4)c3)CC2)=C(c2ccc(Cl)cc2)C1 [Venetoclax] + CCN(CCO)CCCOc1ccc2c(Nc3cc(CC(=O)Nc4cccc(F)c4)[nH]n3)ncnc2c1 [AZD2811] (first compound max 1 µM, 7x7, partner max 1 µM)	0.151	0.154	0.346	0.16	0.282	0.46	0.225	0.423	0.183	1	0.687	0.439	0.263	0.188	0.164	0.124	0.334	0.754	0.457	0.311
Cc1c2c(nn1C)CSCc1cc(n(C)n1)CSc1cc(c3ccccc3c1)OCCCc1c(C(=O)O)n(C)c3c-2c(Cl)ccc13 [AZD5991] + CN(C)CCCOc1ccc(-c2ccc3ncc4c(c3c2)n(C2CCOCC2)c(=O)n4C)cn1 [AZD0156] (first compound max 1 µM, 7x7, partner max 1 µM)	0.255	0.188	0.255	0.211	0.186	0.219	0.211	0.314	0.196	0.48	0.771	0.223	0.779	0.229	0.238	0.287	0.791	1	0.941	0.162
COc1nnc2ccc(N3CCC(c4ccc(OCCN5CCN(C)C(=O)[C@H]5C)cc4)CC3)nn12 [AZD5153] + C=CCn1c(=O)c2cnc(Nc3ccc(N4CCN(C)CC4)cc3)nc2n1-c1cccc(C(C)(C)O)n1 [AZD1775] (first compound max 1 µM, partner max 1 µM)	0.522	0.275	0.923	0.393	0.451	0.505	0.421	0.787	0.517	1	0.813	0.908	0.549	0.668	0.758	0.581	0.791	1	0.914	0.578
CS(=O)(=O)CCNCc1ccc(-c2ccc3ncnc(Nc4ccc(OCc5cccc(F)c5)c(Cl)c4)c3c2)o1 [Lapatinib] + C[C@@H](Oc1cc(-c2cnn(C3CCNCC3)c2)cnc1N)c1c(Cl)ccc(F)c1Cl [Crizotinib] (first compound max 10 µM, 7x7, partner max 10 µM)	0.927	0.552	0.976	0.307	0.858	0.673	0.882	0.622	0.255	0.881	0.979	0.934	0.915	0.826	0.928	0.224	0.859	1	0.936	0.508
Cc1c2c(nn1C)CSCc1cc(n(C)n1)CSc1cc(c3ccccc3c1)OCCCc1c(C(=O)O)n(C)c3c-2c(Cl)ccc13 [AZD5991] + CC1(C)CCC(CN2CCN(c3ccc(C(=O)NS(=O)(=O)c4ccc(NCC5CCOCC5)c([N+](=O)[O-])c4)c(Oc4cnc5[nH]ccc5c4)c3)CC2)=C(c2ccc(Cl)cc2)C1 [Venetoclax] (first compound max 1 µM, 7x7, partner max 1 µM)	0.147	0.508	0.665	0.171	0.144	0.783	0.158	0.185	0.142	0.787	0.979	0.425	0.409	0.439	0.147	0.593	0.889	1	0.914	0.157
